Test: Cell-based activity under Prompt Conditions: Cell-based activity under Prompt Conditions. Rat or human NHE3-mediated Na+-dependent H+ antiport was measured using a modification of the pH sensitive dye method originally reported by Paradiso (PNAS USA. 81:7436-7440, 1984). Opossum kidney (OK) cells were obtained from the ATCC and propagated per their instructions. The rat NHE3 gene (GenBank M85300) or the human NHE3 gene (GenBank NM_004174.1) was introduced into OK cells via electroporation, and cells were seeded into 96 well plates and grown overnight. Medium was aspirated from the wells, cells were washed twice with NaCl-HEPES buffer (100 mM NaCl, 50 mM HEPES, 10 mM glucose, 5 mM KCl, 2 mM CaCl2, 1 mM MgCl2, pH 7.4), then incubated for 30 min at room temperature with NH4Cl-HEPES buffer (20 mM NH4Cl, 80 mM NaCl, 50 mM HEPES, 5 mM KCl, 2 mM CaCl2, 1 mM MgCl2, pH 7.4) containing 5 μM bis(acetoxymethyl) 3,3′-(3′,6′-bis(acetoxymethoxy)-5-((acetoxymethoxy)carbonyl)-3-oxo-3H-spiro[isobenzofuran-1,9′-xanthene]-2′,7′-diyl)dipropanoate (BCECF-AM).Cells were washed twice with Ammonium free, Na+-free HEPES (100 mM choline, 50 mM HEPES, 10 mM glucose, 5 mM KCl, 2 mM CaCl2, 1 mM MgCl2, pH 7.4) and incubated in the same buffer for 10 minutes at room temperature to lower intracellular pH. […] Initial rates were plotted as the average 2 or more replicates, and pIC50 values were estimated using GraphPad Prism.

Row | Structure (SMILES) | IC50
1 | CCC(=O)NC(CCC(=O)NCCOCCOCCOCCNS(=O)(=O)c1cccc([C@@H]2CN(C)Cc3c(Cl)cc(Cl)cc32)c1)(CCC(=O)NCCOCCOCCOCCNS(=O)(=O)c1cccc([C@@H]2CN(C)Cc3c(Cl)cc(Cl)cc32)c1)CCC(=O)NCCOCCOCCOCCNS(=O)(=O)c1cccc([C@@H]2CN(C)Cc3c(Cl)cc(Cl)cc32)c1 | 79.4 nM
2 | CCCCCCCCCCC(=O)NC(CCC(=O)NCCOCCOCCNS(=O)(=O)c1cccc([C@@H]2CN(C)Cc3c(Cl)cc(Cl)cc32)c1)(CCC(=O)NCCOCCOCCNS(=O)(=O)c1cccc([C@@H]2CN(C)Cc3c(Cl)cc(Cl)cc32)c1)CCC(=O)NCCOCCOCCNS(=O)(=O)c1cccc([C@@H]2CN(C)Cc3c(Cl)cc(Cl)cc32)c1 | < 10000 nM
3 | CN1Cc2c(Cl)cc(Cl)cc2[C@H](c2cccc(S(=O)(=O)NCCOCCOCCNC(=O)N(C)CCCN(CCCN(C)C(=O)NCCOCCOCCNS(=O)(=O)c3cccc([C@@H]4CN(C)Cc5c(Cl)cc(Cl)cc54)c3)CCCN(C)C(=O)NCCOCCOCCNS(=O)(=O)c3cccc([C@@H]4CN(C)Cc5c(Cl)cc(Cl)cc54)c3)c2)C1 | 126 nM
4 | CN1Cc2c(Cl)cc(Cl)cc2[C@H](c2cccc(S(=O)(=O)NCCOCCOCCNC(=O)CCC(=O)NCCOCCOCCNS(=O)(=O)c3ccc(O[C@H]4c5ccccc5C[C@@H]4N4CCCCC4)cc3)c2)C1 | 31.6 nM
5 | O=C(NCCCCNC(=O)NCCOCCOCCNS(=O)(=O)c1ccc(O[C@H]2c3cc(Cl)cc(Cl)c3C[C@@H]2N2CC[C@@H](O)C2)cc1)NCCOCCOCCNS(=O)(=O)c1ccc(O[C@H]2c3cc(Cl)cc(Cl)c3C[C@@H]2N2CC[C@@H](O)C2)cc1 | < 10000 nM
6 | O=C(NCCOCCOCCOCCNS(=O)(=O)c1ccc(O[C@H]2c3ccccc3C[C@@H]2N2CCCCC2)cc1)c1ccc(C(=O)NCCOCCOCCOCCNS(=O)(=O)c2ccc(O[C@H]3c4ccccc4C[C@@H]3N3CCCCC3)cc2)cc1 | 31.6 nM
7 | O=C(NCCOCCOCCNS(=O)(=O)c1ccc(O[C@H]2c3ccccc3C[C@@H]2N2CCCCC2)cc1)c1ccc(C(=O)NCCOCCOCCNS(=O)(=O)c2ccc(O[C@H]3c4ccccc4C[C@@H]3N3CCCCC3)cc2)cc1 | 7.94 nM
8 | CN(C)[C@H]1Cc2ccc(Cl)cc2[C@@H]1Oc1ccc(S(=O)(=O)NCCOCCOCCNC(=O)NCCCCNC(=O)NCCOCCOCCNS(=O)(=O)c2ccc(O[C@H]3c4cc(Cl)ccc4C[C@@H]3N(C)C)cc2)cc1 | < 10000 nM
9 | CN1Cc2c(Cl)cc(Cl)cc2[C@H](c2cccc(S(=O)(=O)NCCOCCOCCOCCNCc3ccc(-c4ccc(Cl)cc4)cc3)c2)C1 | < 10000 nM
10 | CN1Cc2c(Cl)cc(Cl)cc2[C@H](c2cccc(S(=O)(=O)NCCOCCOCCNC(=O)NCCN(CCNC(=O)NCCOCCOCCNS(=O)(=O)c3cccc([C@@H]4CN(C)Cc5c(Cl)cc(Cl)cc54)c3)C(=O)NCCOCCOCCNC(=O)c3ccc(-c4ccc(Cl)cc4)cc3)c2)C1 | 1580 nM
11 | CCCCCCCCCCC(=O)NCCOCCOCCOCCNS(=O)(=O)c1cccc([C@@H]2CN(C)Cc3c(Cl)cc(Cl)cc32)c1 | < 10000 nM
12 | CCCCCCCCOc1ccc(CNCCOCCOCCOCCNS(=O)(=O)c2cccc([C@@H]3CN(C)Cc4c(Cl)cc(Cl)cc43)c2)cc1 | < 10000 nM
13 | CN1Cc2c(Cl)cc(Cl)cc2[C@H](c2cccc(S(=O)(=O)NCCOCCOCCNC(=O)COCC(=O)NCCOCCOCCNS(=O)(=O)c3ccc(O[C@H]4c5ccccc5C[C@@H]4N4CCCCC4)cc3)c2)C1 | 25.1 nM
14 | CN1Cc2c(Cl)cc(Cl)cc2[C@H](c2cccc(S(=O)(=O)NCCOCCOCCNC(=O)CCC(CCC(=O)NCCOCCOCCNS(=O)(=O)c3cccc([C@@H]4CN(C)Cc5c(Cl)cc(Cl)cc54)c3)(CCC(=O)NCCOCCOCCNS(=O)(=O)c3cccc([C@@H]4CN(C)Cc5c(Cl)cc(Cl)cc54)c3)NCc3ccc(-c4ccc(Cl)cc4)cc3)c2)C1 | < 10000 nM
15 | CN1Cc2c(Cl)cc(Cl)cc2[C@H](c2cccc(S(=O)(=O)NCCOCCOCCOCCNC(=O)CCC(N)(CCC(=O)NCCOCCOCCOCCNS(=O)(=O)c3cccc([C@@H]4CN(C)Cc5c(Cl)cc(Cl)cc54)c3)CCC(=O)NCCOCCOCCOCCNS(=O)(=O)c3cccc([C@@H]4CN(C)Cc5c(Cl)cc(Cl)cc54)c3)c2)C1 | 63.1 nM
16 | CC(C)CCC[C@@H](C)[C@H]1CC[C@H]2[C@@H]3CC=C4C[C@@H](OC(=O)NCCOCCOCCNC(=O)N(CCNC(=O)NCCOCCOCCNS(=O)(=O)c5cccc([C@@H]6CN(C)Cc7c(Cl)cc(Cl)cc76)c5)CCNC(=O)NCCOCCOCCNS(=O)(=O)c5cccc([C@@H]6CN(C)Cc7c(Cl)cc(Cl)cc76)c5)CC[C@]4(C)[C@H]3CC[C@]12C | < 10000 nM
17 | CN1Cc2c(Cl)cc(Cl)cc2[C@H](c2cccc(S(=O)(=O)NCCOCCOCCNC(=O)NCCN(CCNC(=O)NCCOCCOCCNS(=O)(=O)c3cccc([C@@H]4CN(C)Cc5c(Cl)cc(Cl)cc54)c3)C(=O)NCCOCCOCCN)c2)C1 | 3.98 nM
18 | CN1Cc2c(Cl)cc(Cl)cc2[C@H](c2cccc(S(=O)(=O)NCCOCCOCCNC(=O)CN(CCOCCOCCOCCN)CC(=O)NCCOCCOCCNS(=O)(=O)c3cccc([C@@H]4CN(C)Cc5c(Cl)cc(Cl)cc54)c3)c2)C1 | 15.8 nM

Row | Structure (SMILES) | IC50
19 | CN1Cc2c(Cl)cc(Cl)cc2[C@H](c2cccc(S(=O)(=O)NCCOCCOCCNC(=O)NCCC[N+](C)(CCCNC(=O)NCCOCCOCCNS(=O)(=O)c3cccc([C@@H]4CN(C)Cc5c(Cl)cc(Cl)cc54)c3)CCCNC(=O)NCCOCCOCCNS(=O)(=O)c3cccc([C@@H]4CN(C)Cc5c(Cl)cc(Cl)cc54)c3)c2)C1 | 39.8 nM
20 | CN1Cc2c(Cl)cc(Cl)cc2[C@H](c2cccc(S(=O)(=O)NCCOCCOCCOCCNC(=O)c3ccc(-c4ccc(Cl)cc4)cc3)c2)C1 | < 10000 nM
21 | C=CC(=O)NCCOCCOCCOCCNS(=O)(=O)c1cccc([C@@H]2CN(C)Cc3c(Cl)cc(Cl)cc32)c1 | 200 nM
22 | CN1Cc2c(Cl)cc(Cl)cc2[C@H](c2cccc(S(=O)(=O)NCCOCCOCCNC(=O)CN(CCOCCOCCOCCNC(=O)c3ccc(-c4ccc(Cl)cc4)cc3)CC(=O)NCCOCCOCCNS(=O)(=O)c3cccc([C@@H]4CN(C)Cc5c(Cl)cc(Cl)cc54)c3)c2)C1 | 1260 nM
23 | CN1Cc2c(Cl)cc(Cl)cc2[C@H](c2cccc(S(=O)(=O)NCCOCCOCCOCCNC(=O)CCC(CCC(=O)NCCOCCOCCOCCNS(=O)(=O)c3cccc([C@@H]4CN(C)Cc5c(Cl)cc(Cl)cc54)c3)(CCC(=O)NCCOCCOCCOCCNS(=O)(=O)c3cccc([C@@H]4CN(C)Cc5c(Cl)cc(Cl)cc54)c3)NC(=O)c3ccc(-c4ccc(Cl)cc4)cc3)c2)C1 | 5010 nM
24 | O=C(NCCOCCOCCNS(=O)(=O)c1ccc(O[C@H]2c3ccccc3C[C@@H]2N2CCCCC2)cc1)c1cccc(C(=O)NCCOCCOCCNS(=O)(=O)c2ccc(O[C@H]3c4ccccc4C[C@@H]3N3CCCCC3)cc2)c1 | < 10000 nM
25 | CN(C)[C@H]1Cc2ccccc2[C@@H]1Oc1ccc(S(=O)(=O)NCCOCCOCCNC(=O)NCCCCNC(=O)NCCOCCOCCNS(=O)(=O)c2ccc(O[C@H]3c4ccccc4C[C@@H]3N(C)C)cc2)cc1 | < 10000 nM
26 | CC(C)(C(=O)NCCOCCOCCOCCNS(=O)(=O)c1ccc(O[C@H]2c3ccccc3C[C@@H]2N2CCCCC2)cc1)C(=O)NCCOCCOCCOCCNS(=O)(=O)c1ccc(O[C@H]2c3ccccc3C[C@@H]2N2CCCCC2)cc1 | 2 nM
27 | O=C(NCCCCNC(=O)NCCOCCOCCNS(=O)(=O)c1ccc(O[C@H]2c3ccccc3C[C@@H]2N2CCCC2)cc1)NCCOCCOCCNS(=O)(=O)c1ccc(O[C@H]2c3ccccc3C[C@@H]2N2CCCC2)cc1 | 2.51 nM
28 | O=C(NCCOCCOCCNS(=O)(=O)c1ccc(O[C@H]2c3ccccc3C[C@@H]2N2CCCCC2)cc1)[C@H](O)[C@@H](O)C(=O)NCCOCCOCCNS(=O)(=O)c1ccc(O[C@H]2c3ccccc3C[C@@H]2N2CCCCC2)cc1 | 3.98 nM
29 | O=C(NCCOCCOCCOCCNS(=O)(=O)c1ccc(O[C@H]2c3ccccc3C[C@@H]2N2CCCCC2)cc1)c1cccc(C(=O)NCCOCCOCCOCCNS(=O)(=O)c2ccc(O[C@H]3c4ccccc4C[C@@H]3N3CCCCC3)cc2)c1 | 39.8 nM
30 | CCCCCCCCOCCOCCOCCOCCOCCOC(=O)NCCOCCOCCOCCNS(=O)(=O)c1cccc([C@@H]2CN(C)Cc3c(Cl)cc(Cl)cc32)c1 | 251 nM
31 | CCC(=O)NCCOCCOCCOCCNS(=O)(=O)c1cccc([C@@H]2CN(C)Cc3c(Cl)cc(Cl)cc32)c1 | 200 nM
32 | CN1Cc2c(Cl)cc(Cl)cc2[C@H](c2cccc(S(=O)(=O)NCCOCCOCCNC(=O)CCC(N)(CCC(=O)NCCOCCOCCNS(=O)(=O)c3cccc([C@@H]4CN(C)Cc5c(Cl)cc(Cl)cc54)c3)CCC(=O)NCCOCCOCCNS(=O)(=O)c3cccc([C@@H]4CN(C)Cc5c(Cl)cc(Cl)cc54)c3)c2)C1 | 85.1 nM
33 | CN1Cc2c(Cl)cc(Cl)cc2[C@H](c2cccc(S(=O)(=O)NCCOCCOCCOCCNC(=O)CCC(CCC(=O)NCCOCCOCCOCCNS(=O)(=O)c3cccc([C@@H]4CN(C)Cc5c(Cl)cc(Cl)cc54)c3)(CCC(=O)NCCOCCOCCOCCNS(=O)(=O)c3cccc([C@@H]4CN(C)Cc5c(Cl)cc(Cl)cc54)c3)NCc3ccc(-c4ccc(Cl)cc4)cc3)c2)C1 | < 10000 nM
34 | CN1Cc2c(Cl)cc(Cl)cc2[C@H](c2cccc(S(=O)(=O)N(C)CCOCCOCCNC(=O)NCCCN(CCCNC(=O)NCCOCCOCCN(C)S(=O)(=O)c3cccc([C@@H]4CN(C)Cc5c(Cl)cc(Cl)cc54)c3)CCCNC(=O)NCCOCCOCCN(C)S(=O)(=O)c3cccc([C@@H]4CN(C)Cc5c(Cl)cc(Cl)cc54)c3)c2)C1 | 100 nM
35 | CCCCCCCCNC(=O)N(CCNC(=O)NCCOCCOCCNS(=O)(=O)c1cccc([C@@H]2CN(C)Cc3c(Cl)cc(Cl)cc32)c1)CCNC(=O)NCCOCCOCCNS(=O)(=O)c1cccc([C@@H]2CN(C)Cc3c(Cl)cc(Cl)cc32)c1 | 1580 nM
36 | CCOCCOCCOCCOCCOCCC(=O)N(CCNC(=O)NCCOCCOCCNS(=O)(=O)c1cccc([C@@H]2CN(C)Cc3c(Cl)cc(Cl)cc32)c1)CCNC(=O)NCCOCCOCCNS(=O)(=O)c1cccc([C@@H]2CN(C)Cc3c(Cl)cc(Cl)cc32)c1 | 251 nM

Source: ChEMBL document CHEMBL5726876, “NHE3-binding compounds and methods for inhibiting phosphate transport” (2019)
